Assay [1] relates to TGF-β-induced fibronectin and Slug expression in HaCaT cells. Nature of the assay: Western blot for fibronectin and Slug in HaCaT cells with pathway inhibitors. In kind it is cell-based, human. The following applies: for effect of CD109 knock-down on TGF-β-induced Slug expression: 100 pM TGF-β1, 4 hrs, 0.5 μM SB431542, 10 μM U0126; for fibronectin production: CD109 siRNA HaCaT cells, 100 pM TGF-β1, 16 hrs, 0.5 μM SB431542, 1 μM SB203580, 10 μM U0126.

The subject of assay [2] is TGF-β-induced EMT in HaCaT cells. Nature of the assay: Immunofluorescence of F-actin and E-cadherin in HaCaT cells with pathway inhibitors. It is filed as cell-based, human. Conditions: for effect mediated by CD109 siRNA transfection on actin stress fibers appearance and relocalization of E-cadherin / effect on EMT markers in the absence of TGF-β: 0.5 μM SB431542, 1 μM SB203580, 10 μM U0126; for effect on EMT markers in the absence of TGF-β: data not shown.

Assay [3] deals with TGF-β-induced migration of HaCaT cells. The experiment in a line: Scratch assay in HaCaT cells with pathway inhibitors. Conditions: 100 pM TGF-β1, 36 hrs; 0.5 μM SB431542, 1 μM SB203580, 10 μM U0126. In kind it is cell-based, human.
Procedure: (FIG. 18A) HaCaT cells transfected with control or CD109 siRNA were scratched and treated with or without 100 pM TGF-β1, 0.5 μM SB431542, 1 μM SB203580 and/or 10 μM U0126 for 36 hrs. Dotted line: wound margin at 0 hr, regular line: wound margin at 36 hrs.
Confluent monolayers of HaCaT or A431 cells were wounded by scrapping the cells with a 200 μl pipette tip. Cells were then incubated with 100 pM TGF-β1, in presence or absence of 10 μM U0126, 1 μM SB203580, 0.5 μM SB431542 in serum free medium for 24-48 hrs. Pictures were taken at the same spot at 0 hr, 24 hrs and 48 hrs. The cell-free area (wound) area was measured using ImageJ™ software and the percentage of original wound area filled with keratinocytes was calculated. At least 3 independents series of experiments were performed in triplicates.
Finally, it was determined whether CD109's effect on migration was also mediated by the SMAD2/3 and MAPK pathways.
Assay [4] relates to TGF-β-induced epithelial-mesenchymal transition (EMT) response in squamous cell carcinoma (A431) cells. Nature of the assay: Immunoblot of EMT markers in A431 cells. In kind it is cell-based. The following applies: 10 nM peptide, 100 pM TGF-b, 24 hrs (FIG. 33). As to the method:
(FIG. 26A) Immunoblot analysis was carried out using cell lysates of A431 cells following incubation with TGF-β, P16, or scrambled control (P16.2) as indicated to determine expression of proteins involved in the EMT response. (FIG. 26B) Densitometry analysis was subsequently performed using the developed immunoblot to illustrate the relative expression of each protein as a function as P16 concentration as indicated.
A431 cancer cells treated with 10 nM of P16.2 (negative peptide control), P12, P16 or PA in the absence or presence of 100 pM TGF-b, followed by 24 hrs of incubation. Cells lysates were analyzed by Western blot for the expression of Fibronectin (mesenchymal marker), Snail and Twist (EMT markers). Actin expression was used as loading control.

The subject of assay [5] is cancer stem cells (CD133 positive cells), epidermoid A431. The experiment in a line: Flow cytometry of CD133 positive cells, A431. In kind it is cell-based. The following applies: 10 nM, 100 pM TGF-b1, 24 hours (FIG. 39). As to the method: (§1) A431 cancer cells (8000 cells) were seeded on a BioCoat™ Matrigel® Invasion Chamber and treated with 10 nM of P16.2 (negative peptide control), P16 or PA in the absence or presence of 100 pM TGF-b, followed by 24 hrs of incubation. Invasive cells (in the lower chambers) were stained by crystal violet dye, photographed and counted. Representative photos (A) and statistical plots of invasion (B) are shown. The data are shown as mean±SD of the number of invasive cells for three independent experiments. **P<0.01 and ***P<0.001 as compared with controls. […] Squamous cell carcinoma (epidermoid A431 and head and neck FaDu) cells were stimulated with 100 pM of TGF-b1, then treated with 10 nM of peptide 16.2, P16, PA or CD109 for 24 hours. Cells were analysed by Flow cytometry and CD133 positive cell population, which represent cancer stem cell population, were quantified.

For assay [6], the system named is bleomycin-induced skin fibrosis. The experiment in a line: Bleomycin-induced skin fibrosis (scleroderma) mouse model. It is filed as in vivo. As to the method:
Wild type mice were treated with bleomycin ([…]) to induce skin fibrosis or PBS (negative control). Mice were treated with CD109 ([…]), P16 ([…]), or PBS by 100 μL subcutaneous injection every other day for 28 days for a total of 14 injections.
(§2) Mice were injected intradermally with bleomycin (5 mg) in […] PBS or PBS alone every second day for 28 days. Mice were co-injected without or with 1.0 mg recombinant CD109 protein or P16 peptide every second day for 28 days (14 mg total). Skin tissue was harvested and immunohistochemical analysis was performed for the detection of Fibronectin, α-sma, CTGF and Type-1 Collagen. Representative images of sections of skin derived from CD109 and p16 treated mice on day 28 after initial bleomycin or PBS treatment are shown. A total of 4-6 different mice per treatment group were analyzed. Original magnification x 20.
as §2, with “phospho-Smad2, phospho-Smad1” for “Fibronectin, α-sma, CTGF”, “TGF-β levels.” for “Type-1 Collagen.”

Assay [7] relates to cancer stem cells (CD133 positive cells), head and neck FaDu. The experiment in a line: Flow cytometry of CD133 positive cells, FaDu. It is filed as cell-based. The following applies: 10 nM, 100 pM TGF-b1, 24 hours (FIG. 39). As for the experimental part:
as §1

[8] abbreviates: co-injected with bleomycin every second day for 28 days (FIG. 37).

Regarding `N#CC(=C(/N)Sc1ccccc1N)/C(C#N)=C(\N)Sc1ccccc1N` [Peptide U0126, U0126], in assay [1], the “effect of CD109 knock-down on TGF-β-induced Slug expression” value is reported as “abrogated” and the fibronectin production result is given as “reduced”. Moreover, the “effect mediated by CD109 siRNA transfection on actin stress fibers appearance and relocalization of E-cadherin” value in assay [2] (100 pM TGF-β1, 36 hrs) is listed as “reduces (but does not abrogate)”. Moreover, the “effect on EMT markers in the absence of TGF-β” value in assay [2] is given as “no effect”. Besides, the “increase of TGF-β-induced cell migration by CD109 knock-down” value in assay [3] is given as “partially reversed”.
On to `NC(=O)c1ccc(-c2nc(-c3ccc4c(c3)OCO4)c(-c3ccccn3)[nH]2)cc1` [SB431542], for which, in assay [1], the “effect of CD109 knock-down on TGF-β-induced Slug expression” value was “abrogated” and the fibronectin production entry is reported as “totally abrogated”. In addition, in assay [2] (100 pM TGF-β1, 36 hrs, 0.5 μM SB431542), the “appearance of actin stress fibers in control siRNA transfected cells” value was “totally prevents”. For the same compound, the “effect mediated by CD109 siRNA transfection on actin stress fibers appearance and relocalization of E-cadherin” value in assay [2] (100 pM TGF-β1, 36 hrs) is given as “reduces (but does not abrogate)”. Moreover, the “effect on EMT markers in the absence of TGF-β” value in assay [2] is reported as “no effect”. In addition, in assay [3], the “increase of TGF-β-induced cell migration by CD109 knock-down” value is “partially reversed”.
As to ETWIWLDTNMGS [Peptide P12], in assay [4], the “inhibition of TGF-b induced EMT response (Fibronectin, Snail, Twist)” value is listed as “not”.
As for “Recombinant CD109: recombinant CD109 protein”, the “number of cancer stem cells (CD133 positive cells), A431” value in assay [5] is given as “inhibit”. Besides, in assay [6] (setting [8]), the “SMAD1 phosphorylation in skin (immunohistochemistry)” value is given as “enhancing”, the “SMAD2 phosphorylation in skin (immunohistochemistry)” value is given as “reduces” and the “TGF-β expression in skin (immunohistochemistry)” value is listed as “reduces”. In assay [6] (co-injected with bleomycin every second day for 28 days, skin on day 28 (FIG. 36)), the “extracellular matrix production (Fibronectin, α-sma, CTGF, Type-1 Collagen, immunohistochemistry)” value was “reduces”. Also, the “number of cancer stem cells (CD133 positive cells), FaDu” value in assay [7] is “inhibit”.

For the origin of these results see patent publication US11787850B2, “Peptidic TGF-beta antagonists” (priority 2015, dated 2023).
